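How tested: cells in 96-well plates exposed to compound for 48 hours at five concentrations. At the TGI there is no net growth.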
What was measured:
Test in all cases: NCI tumour cell line growth inhibition, 48 h
A498 renal = test system: A498 renal
A549 NSCLC = test system: A549 NSCLC
CAKI-1 renal = test system: CAKI-1 renal
CCRF-CEM leukemia = test system: CCRF-CEM leukemia
HCC-2998 colon = test system: HCC-2998 colon
HL-60(TB) leukemia = test system: HL-60(TB) leukemia
HOP-92 NSCLC = test system: HOP-92 NSCLC
K-562 leukemia = test system: K-562 leukemia
KM12 colon = test system: KM12 colon
MCF7 breast = test system: MCF7 breast
MDA-N = test system: MDA-N
NCI-H460 lung = test system: NCI-H460 lung
OVCAR-3 ovarian = test system: OVCAR-3 ovarian
RPMI-8226 leukemia = test system: RPMI-8226 leukemia
RXF 393 renal = test system: RXF 393 renal
SF-295 CNS = test system: SF-295 CNS
SK-OV-3 ovarian = test system: SK-OV-3 ovarian
SNB-75 CNS = test system: SNB-75 CNS
UACC-257 melanoma = test system: UACC-257 melanoma
UO-31 renal = test system: UO-31 renal

Row | Compound | TGI (A498 renal) | TGI (A549 NSCLC) | TGI (CAKI-1 renal) | TGI (CCRF-CEM leukemia) | TGI (HCC-2998 colon) | TGI (HL-60(TB) leukemia) | TGI (HOP-92 NSCLC) | TGI (K-562 leukemia) | TGI (KM12 colon) | TGI (MCF7 breast) | TGI (MDA-N) | TGI (NCI-H460 lung) | TGI (OVCAR-3 ovarian) | TGI (RPMI-8226 leukemia) | TGI (RXF 393 renal) | TGI (SF-295 CNS) | TGI (SK-OV-3 ovarian) | TGI (SNB-75 CNS) | TGI (UACC-257 melanoma) | TGI (UO-31 renal)
1 | O=C(OC1C#CCSCC#C/C=C\1)c1ccc2c(c1)C(=O)c1ccccc1C2=O (stereo not given) | > 100 µM | > 100 µM | > 100 µM | > 100 µM | > 100 µM | > 100 µM | 13.7 µM | > 100 µM | > 100 µM | > 100 µM | > 100 µM | > 100 µM | > 100 µM | > 100 µM | 47.1 µM | > 100 µM | 70.6 µM | > 100 µM | > 100 µM | > 100 µM
2 | CN(C)CCCn1c(-c2ccc(Br)cc2)csc1=Nc1ccccc1 | 28.3 µM | 48.9 µM | 41 µM | > 100 µM | 18.3 µM | > 100 µM | > 100 µM | 47.8 µM | 26.4 µM | 54 µM | > 100 µM | 39.4 µM | 23.3 µM | 44.4 µM | 29.8 µM | 25.4 µM | 40.4 µM | 29.8 µM | 29.8 µM | 30.2 µM

Reference: PubChem BioAssay (NCI)
